Target: T1, recombinant human GR (Homo sapiens, UniProt P04150)
T1 construct: purchased Panvera/Invitrogen P2812 (kit P2893)
T1 sequence (P04150 1-777): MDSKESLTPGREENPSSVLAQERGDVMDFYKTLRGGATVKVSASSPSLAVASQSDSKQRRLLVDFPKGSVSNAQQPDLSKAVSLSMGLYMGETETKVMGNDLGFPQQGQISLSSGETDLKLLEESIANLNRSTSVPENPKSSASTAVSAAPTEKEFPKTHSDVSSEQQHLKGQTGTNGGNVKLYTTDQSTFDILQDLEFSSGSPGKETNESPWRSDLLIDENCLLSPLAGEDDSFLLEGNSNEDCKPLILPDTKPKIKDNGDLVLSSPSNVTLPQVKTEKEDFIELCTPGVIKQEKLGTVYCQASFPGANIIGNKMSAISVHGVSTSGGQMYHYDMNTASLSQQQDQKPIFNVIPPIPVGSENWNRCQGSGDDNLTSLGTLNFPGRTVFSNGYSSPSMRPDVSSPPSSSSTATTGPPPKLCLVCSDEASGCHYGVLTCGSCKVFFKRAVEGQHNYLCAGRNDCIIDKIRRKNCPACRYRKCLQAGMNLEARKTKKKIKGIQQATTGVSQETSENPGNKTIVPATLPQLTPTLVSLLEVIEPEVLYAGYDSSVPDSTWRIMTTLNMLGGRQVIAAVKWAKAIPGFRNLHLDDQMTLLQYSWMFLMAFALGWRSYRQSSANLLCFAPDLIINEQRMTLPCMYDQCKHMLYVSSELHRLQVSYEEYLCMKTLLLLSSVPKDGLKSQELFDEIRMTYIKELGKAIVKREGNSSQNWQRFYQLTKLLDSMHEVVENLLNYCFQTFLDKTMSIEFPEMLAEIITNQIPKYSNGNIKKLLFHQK
Experiment: Human Glucocorticoid Receptor (GR) Assay, fluorescence polarization (GRhuFL_FP_v2, GR-binders)
Assay type: binding
Description: Human Glucocorticoid Receptor (GR) Assay
The assay is based on a commercial kit from Panvera/Invitrogen (Part number P2893). The assay technology is fluorescence polarization. […] The GR and Stabilizing Peptide reagents are stored at −70° C. while the GS Red is stored at −20° C. Also included in the kit are 1M DTT (Panvera, Part number P2325, stored at −20° C.) and GR Screening buffer 10× (Panvera, Part number P2814, stored at −70° C. initially but once thawed stored at room temperature). Avoid repeated freeze/thaws for all reagents. The GR Screening buffer 10× comprises 100 mM potassium phosphate, 200 mM sodium molybdate, 1 mM EDTA and 20% DMSO.
0% control was 100% DMSO and 100% control was 10 μM Dexamethasone. Background solution (8 μL; assay buffer 10×, Stabilizing Peptide, DTT and ice cold MQ water) was added to the background wells. GS Red solution (7 μL; assay buffer 10×, Stabilizing Peptide, DTT, GS Red and ice cold water) was added to all wells except background wells. GR solution (7 μL; assay buffer 10×, Stabilizing Peptide, DTT, GR and ice cold water) was added to all wells. The plate was sealed and incubated in a dark at room temperature for 2 hours.

| Compound | IC50 [nM] |
| --- | --- |
| Cc1nn(C2CCCC2)c(C)c1S(=O)(=O)N[C@@H](C)CNc1cccc2c1cnn2-c1ccc(C#N)cc1 [Example 30, N-((1S)-2-{[1-(4-Cyanophenyl)-1H-indazol-4-yl]amino}-1-methylethyl)-1-cyclopentyl-3,5-dimethyl-1H-pyrazole-4-sulfonamide] | 4.7 |
| Cc1cc(C)c(S(=O)(=O)N[C@@H](C)CNc2cccc3c2c(C)nn3-c2ccc(F)cc2)c(C)c1 [Example 52, N-((1S)-2-{[1-(4-Fluoro-phenyl)-3-methyl-1H-indazol-4-yl]amino}-1-methylethyl)-2,4,6-trimethylbenzenesulfonamide] | 272 |
| Cc1cc(C)c(S(=O)(=O)NC(C)CS(=O)(=O)c2cccc3c2cnn3-c2ccc(F)cc2)c(C)c1 (stereo not shown) [Example 37, N-[2-[1-(4-Fluorophenyl)indazol-4-yl]sulfonyl-1-methyl-ethyl]-2,4,6-trimethyl-benzenesulfonamide] | 790 |
| Cc1nn(C2CCCC2)c(C)c1S(=O)(=O)N[C@@H](C)CNc1cccc2c1cnn2-c1ccc(OC(F)(F)F)cc1 [Example 27, 1-Cyclopentyl-3,5-dimethyl-N-[(1S)-1-methyl-2-({1-[4-(trifluoromethoxy)phenyl]-1H-indazol-4-yl}amino)ethyl]-1H-pyrazole-4-sulfonamide] | 12 |
| Cc1cc(C)c(S(=O)(=O)NC(COc2cccc3c2cnn3-c2ccc(F)cc2)C(F)(F)F)c(C)c1 (stereo not shown) [Example 4] | 4 |
| Cc1nn(C2CCCC2)c(C)c1S(=O)(=O)N[C@@H](C)COc1cccc2c1cnn2-c1cccnc1 [Example 49, 1-Cyclopentyl-3,5-dimethyl-N-{(1S)-1-methyl-2-[(1-pyridin-3-yl-1H-indazol-4-yl)oxy]ethyl}-1H-pyrazole-4-sulfonamide] | 54 |
| Cc1cc(C)c(S(=O)(=O)N[C@@H](C)CNc2c(F)ccc3c2cnn3-c2ccc(F)cc2)c(C)c1 [Example 32, N-((1S)-2-{[5-Fluoro-1-(4-fluorophenyl)-1H-indazol-4-yl]amino}-1-methylethyl)-2,4,6-trimethylbenzenesulfonamide] | 4.2 |
| Cc1cc(C)c(S(=O)(=O)N[C@H](CNc2cccc3c2cnn3-c2ccc(F)cc2)C(C)C)c(C)c1 [Example 35, N-[(1S)-1-({[1-(4-Fluorophenyl)-1H-indazol-4-yl]amino}methyl)-2-methylpropyl]-2,4,6-trimethylbenzenesulfonamide] | 8 |
| Cc1cc(C)c(S(=O)(=O)N[C@@H](C)CCc2cccc3c2cnn3-c2cncnc2)c(C)c1 [Example 54, 2,4,6-Trimethyl-N-[(1S)-1-methyl-3-(1-pyrimidin-5-yl-1H-indazol-4-yl)propyl]benzenesulfonamide] | 17 |
| Cc1nn(C2CCCC2)c(C)c1S(=O)(=O)N[C@@H](C)CNc1cccc2c1cnn2-c1ccc(F)nc1 [Example 26, 1-Cyclopentyl-N-((1S)-2-{[1-(6-fluoropyridin-3-yl)-1H-indazol-4-yl]amino}-1-methylethyl)-3,5-dimethyl-1H-pyrazole-4-sulfonamide] | 3 |
| Cc1cc(C)c(S(=O)(=O)N[C@@H](C)CNc2cccc3c2cnn3-c2ccc(Cl)cc2)c(C)c1 [Example 22, N-((1S)-2-{[1-(4-Chlorophenyl)-1H-indazol-4-yl]amino}-1-methylethyl)-2,4,6-trimethylbenzenesulfonamide] | 3.5 |
| Cc1cc(C)c(S(=O)(=O)N[C@@H](C)CNc2cccc3c2cnn3-c2cncnc2)c(C)c1 [Example 15, 2,4,6-Trimethyl-N-{(1S)-1-methyl-2-[(1-pyrimidin-5-yl-1H-indazol-4-yl)amino]ethyl}benzenesulfonamide] | 5.4 |
| Cc1nn([C@H]2CCOC2)c(C)c1S(=O)(=O)N[C@@H](C)COc1cccc2c1cnn2-c1ccc(F)cc1 [Example 47, N-((1S)-2-{[1-(4-Fluorophenyl)-1H-indazol-4-yl]oxy}-1-methylethyl)-3,5-dimethyl-1-[(3S)-tetrahydrofuran-3-yl]-1H-pyrazole-4-sulfonamide] | 36 |
| Cc1nn([C@@H]2CCOC2)c(C)c1S(=O)(=O)N[C@@H](C)COc1cccc2c1cnn2-c1ccc(F)cc1 [Example 45, N-((1S)-2-{[1-(4-Fluorophenyl)-1H-indazol-4-yl]oxy}-1-methylethyl)-3,5-dimethyl-1-[(3R)-tetrahydrofuran-3-yl]-1H-pyrazole-4-sulfonamide] | 18 |
| COc1cccc(-n2ncc3c(NC[C@H](C)NS(=O)(=O)c4c(C)cc(C)cc4C)cccc32)c1 [Example 8, N-((1S)-2-{[1-(3-Methoxyphenyl)-1H-indazol-4-yl]amino}-1-methylethyl)-2,4,6-trimethylbenzenesulfonamide] | 6.9 |
| COc1ccc(-n2ncc3c(NC[C@H](C)NS(=O)(=O)c4c(C)cc(C)cc4C)cccc32)cc1F [Example 21, N-((1S)-2-{[1-(3-Fluoro-4-methoxy-phenyl)-1H-indazol-4-yl]amino}-1-methylethyl)-2,4,6-trimethylbenzenesulfonamide] | 2.7 |

The remaining compounds from weak to strong by IC50, led by results:

| IC50 [nM] | Compound |
| --- | --- |
| 23 | COc1ncc(-n2ncc3c(NC[C@H](C)NS(=O)(=O)c4c(C)nn(C5CCCC5)c4C)cccc32)cn1 [Example 28, 1-Cyclopentyl-N-((1S)-2-{[1-(2-methoxypyrimidin-5-yl)-1H-indazol-4-yl]amino}-1-methylethyl)-3,5-dimethyl-1H-pyrazole-4-sulfonamide] |
| 20 | Cc1ccc(-n2ncc3c(NC[C@H](C)NS(=O)(=O)c4ccccc4)cccc32)cc1 [Example 51] |
| 18 | CCC(CC)n1nc(C)c(S(=O)(=O)N[C@@H](C)COc2cccc3c2cnn3-c2ccc(F)cc2)c1C [Example 46, 1-(1-Ethylpropyl)-N-((1S)-2-{[1-(4-fluorophenyl)-1H-indazol-4-yl]oxy}-1-methylethyl)-3,5-dimethyl-1H-pyrazole-4-sulfonamide] |
| 8.7 | Cc1cc(C)c(S(=O)(=O)NC[C@@H](C)Nc2cccc3c2cnn3-c2ccc(F)cc2)c(C)c1 [Example 24, N-((2R)-2-{[1-(4-Fluorophenyl)-1H-indazol-4-yl]amino}propyl)-2,4,6-trimethylbenzenesulfonamide] |
| 7.6 | Cc1cc(C)c(S(=O)(=O)NC(C)CSc2cccc3c2cnn3-c2ccc(F)cc2)c(C)c1 (stereo not shown) [Example 36, N-[2-[1-(4-Fluorophenyl)indazol-4-yl]sulfanyl-1-methylethyl]-2,4,6-trimethyl-benzenesulfonamide] |
| 7.3 | Cc1cc(C)c(S(=O)(=O)N[C@@H](C)CNc2c(C)ccc3c2cnn3-c2ccc(F)cc2)c(C)c1 [Example 23, N-((1S)-2-{[1-(4-Fluorophenyl)-5-methyl-1H-indazol-4-yl]amino}-1-methylethyl)-2,4,6-trimethylbenzenesulfonamide] |
| 7.1 | Cc1cc(C)c(S(=O)(=O)N[C@@H](C)CNc2cccc3c2cnn3-c2ccnc(F)c2)c(C)c1 [Example 10, N-((1S)-2-{[1-(2-Fluoropyridin-4-yl)-1H-indazol-4-yl]amino}-1-methylethyl)-2,4,6-trimethylbenzenesulfonamide] |
| 5.4 | COc1ccc(-n2ncc3c(NC[C@H](C)NS(=O)(=O)c4c(C)cc(C)cc4C)cccc32)cc1 [Example 5, N-((1S)-2-{[1-(4-Methoxyphenyl)-1H-indazol-4-yl]amino}-1-methylethyl)-2,4,6-trimethylbenzenesulfonamide] |
| 4.6 | Cc1cc(C)c(S(=O)(=O)N[C@@H](C)CCc2cccc3c2cnn3-c2ccc(F)cc2)c(C)c1 [Example 39, N-{(1S)-3-[1-(4-Fluorophenyl)-1H-indazol-4-yl]-1-methylpropyl}-2,4,6-trimethylbenzenesulfonamide] |
| 4.4 | COCc1cccc(-n2ncc3c(NC[C@H](C)NS(=O)(=O)c4c(C)cc(C)cc4C)cccc32)c1 [Example 20, N-[(1S)-2-({1-[3-(Methoxymethyl)phenyl]-1H-indazol-4-yl}amino)-1-methylethyl]-2,4,6-trimethylbenzenesulfonamide] |
| 4.3 | Cc1cc(C)c(S(=O)(=O)N[C@@H](C)CNc2cccc3c2cnn3-c2ccncc2)c(C)c1 [Example 14, 2,4,6-Trimethyl-N-{(1S)-1-methyl-2-[(1-pyridin-4-yl-1H-indazol-4-yl)amino]ethyl}benzenesulfonamide] |
| 3.8 | Cc1nn(C2CCCC2)c(C)c1S(=O)(=O)N[C@@H](C)CNc1cccc2c1cnn2-c1ccc(F)cc1 [Example 25] |

From US20090124607A1, “Novel Bicyclic Sulfonamides for Use as Glucocorticoid Receptor Modulators in the Treatment of Inflammatory Diseases” (priority 2005, published 2009)
